Measured values published in the supplement of paper PMC6470124.

Legend:
[1] = absolute recovery over vacuum-assisted evaporative concentration; higher = better recovery; details: enrichment method: VEC
Method in brief: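 Samples of influent (6 mL), effluent (15 mL) and surface or nanopure water (60 mL) were spiked with standards before or after concentration, or left unspiked, at 200 ng/L (nanopure/surface) or 1000 ng/L (wastewater), adjusted by class and compound. Concentration was by evaporation at 55 °C and 20 mbar to about 0.3 mL, followed by adjustment to 0.4 mL and centrifugation. Internal standards were then added for LC-HRMS/MS analysis. Absolute recovery was (response ratio pre − unspiked)/(post − unspiked) × 100, using averages of ≥ 2 replicates.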

[2] = absolute recovery over mixed-bed multilayer solid-phase extraction; higher = better recovery; details: enrichment method: SPE
Method in brief: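 A three-layer mixed-bed cartridge was loaded with 100–250 mL of wastewater (adjusted to pH 6.5, glass-fibre filtered) or 1000 mL of unfiltered nanopure water, then eluted with basic and subsequently acidic ethyl acetate/methanol. Standards were introduced pre-extraction, post-extraction, or not at all, at 200 ng/L for water and 1000 ng/L for wastewater, except for certain classes. Once internal standards had been added, both ionisation modes were run by liquid chromatography with high-resolution tandem mass spectrometry. Absolute recovery was derived from background-corrected response ratios of pre- against post-spiked samples, averaged over at least two replicates.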

[3] = LC retention time (Atlantis T3, 5-95% MeOH gradient, 0.1% formic acid); higher = more retained / less polar
Method in brief: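 Retention times refer to reference standards measured by liquid chromatography with high-resolution tandem mass spectrometry. Separation was on an Atlantis T3 C18 column (3 × 150 mm, 3 μm) at 0.3 mL/min with a 5 to 95% methanol gradient over 17.5 min, both solvents carrying 0.1% formic acid. Positive and negative electrospray were run separately on a QExactive Plus, and TraceFinder peak integration (5 ppm tolerance, at least three points per peak) was reviewed by hand.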

SMILES | absolute recovery ([1]; wastewater effluent) [%] | absolute recovery ([1]; wastewater influent) [%] | absolute recovery ([2]; nanopure water) [%] | absolute recovery ([2]; surface water) [%] | absolute recovery ([2]; wastewater effluent) [%] | absolute recovery ([2]; wastewater influent) [%] | LC retention time [3] [min]
Cc1ccc(NS(=O)(=O)N(C)C)cc1 [N-N-dimethyl-N-(4-methylphenyl)-sulfamide] | 99.5 | 104 | 94.7 | 98 | 91.7 | 96.1 | 17.2
C[NH2+]CC(c1ccc(O)cc1)C1(O)CCCCC1 (stereo unspecified) [N-O-Didesvenlafaxin] | 106 | 100 | 80 | 79.7 | 76 | 83.4 | 12.1
C[NH2+]CCC(c1ccccc1)c1ccccn1 (stereo unspecified) [N-desmethylpheniramine] | 106 | 109 | 59.5 | 65.4 | 65.1 | 81.3 | 10.8
CCCCCCCCCC[N+](C)(C)[O-] [NN-Dimethyldicylamin-N-oxid] | 103 | 110 | 85.4 | 110 | 93.4 | 58.3 | 16.9
CCOc1ccc2ccccc2c1C(=O)NC1C(=O)N2C1SC(C)(C)C2C(=O)[O-] (stereo unspecified) [Nafcillin] | 111 | 144 | 74.1 | 27 | 36.7 | 44.8 | 19
O=C1CCC2(O)C3Cc4ccc(O)c5c4C2(CC[NH+]3CC2CC2)C1O5 (stereo unspecified) [Naltrexon] | 103 | 99 | 87.8 | 98.2 | 95.7 | 94.3 | 9.63
CCN(CC)C(=O)C(C)Oc1cccc2ccccc12 (stereo unspecified) [Napropamid] | 88.4 | 90.9 | 96.6 | 90.8 | 89.3 | 96.1 | 20.3
COc1ccc2cc(C(C)C(=O)[O-])ccc2c1 (stereo unspecified) [Naproxen] | 109 | – | 96.1 | 96.5 | 92.8 | – | 19.3
COc1ccc(CCC(=O)c2c(O)cc(OC3OC(CO)C(O)C(O)C3OC3OC(C)C(O)C(O)C3O)cc2O)cc1O (stereo unspecified) [Neohesperidin-dihydrochalcon] | 51.7 | 49.7 | 71.4 | 78.7 | 90.1 | 85 | 16.3
COC(=O)C(Cc1ccccc1)NC(=O)C(CC(=O)[O-])[NH2+]CCC(C)(C)C (stereo unspecified) [Neotam] | 89.2 | 81.8 | 91.9 | 91.3 | 93.8 | 95.2 | 17.2
COc1cc(OC)nc(NC(=O)[N-]S(=O)(=O)c2ncccc2C(=O)N(C)C)n1 [Nicosulfuron] | 103 | 102 | 95.8 | 97.3 | 96.2 | 95.7 | 16.9
C[NH+]1CCCC1c1cccnc1 (stereo unspecified) [Nicotine] | 76.9 | 79.1 | 35.1 | 27.7 | 47.9 | 52.5 | 11.1
C#CC[NH2+]C(C)Cc1ccccc1 (stereo unspecified) [Nordeprenyl] | 38.9 | 11.4 | 74.8 | 84.7 | 80.2 | 78.3 | 11.5
CCn1cc(C(=O)[O-])c(=O)c2cc(F)c(N3CC[NH2+]CC3)cc21 [Norfloxacin] | 104 | – | 75.9 | 68.2 | 74 | 74.9 | 11.5
c1ccc2c(c1)Cc1ccccc1N1CC[NH2+]CC21 (stereo unspecified) [Normianserin] | 94.1 | 84.1 | 79.1 | 95.2 | 83.6 | 85.6 | 14.8
c1cncc(C2CCC[NH2+]2)c1 (stereo unspecified) [Nornicotine] | 111 | 118 | 65.4 | – | 47.9 | 43.6 | 4.38
COc1ccc2c(c1OC)C(=O)OC2C1c2c(cc3c(c2OC)OCO3)CC[NH+]1C (stereo unspecified) [Noscapin] | 85.7 | 89.8 | 80.1 | 89.2 | 91.8 | 103 | 12.8

SMILES | absolute recovery ([1]; wastewater effluent) [%] | absolute recovery ([1]; wastewater influent) [%] | absolute recovery ([2]; nanopure water) [%] | absolute recovery ([2]; surface water) [%] | absolute recovery ([2]; wastewater effluent) [%] | absolute recovery ([2]; wastewater influent) [%] | LC retention time [3] [min]
C[NH+](C)CC(c1ccc(O)cc1)C1(O)CCCCC1 (stereo unspecified) [O-Desvenlafaxin] | – | 97.9 | 97.4 | 89.9 | 90.6 | 77.7 | 12
C[NH+](C)CCC=C1c2ccccc2COc2ccc(CC(=O)[O-])cc21 [Olopatadine] | 100 | 102 | 82.8 | 86.5 | 91.2 | 84.9 | 14.9
CCCN(CCC)c1c([N+](=O)[O-])cc(S(N)(=O)=O)cc1[N+](=O)[O-] [Oryzalin] | 105 | 91.7 | 97 | 102 | 94 | 109 | 20.2
CCC(CC)OC1C=C(C(=O)[O-])CC([NH3+])C1NC(C)=O (stereo unspecified) [Oseltamivir-carboxylat] | 105 | 105 | 75.9 | 24.7 | 44.2 | 60.1 | 12.5
CCOC(=O)C1=CC(OC(CC)CC)C(NC(C)=O)C([NH3+])C1 (stereo unspecified) [Oseltamivir] | 101 | 107 | 69.9 | 77.5 | 77.3 | 80.4 | 14.7
Cc1onc(-c2ccccc2)c1C(=O)NC1C(=O)N2C1SC(C)(C)C2C(=O)[O-] (stereo unspecified) [Oxacillin] | 91.3 | – | 61.2 | 10.8 | 21.2 | 33.4 | 18.4
Cc1cc(C)nc(NC(=O)[N-]S(=O)(=O)c2ccccc2C(=O)OC2COC2)n1 [Oxasulfuron] | 111 | 103 | 107 | 93.3 | 93 | 83.6 | 16.5
O=C1Nc2ccc(Cl)cc2C(c2ccccc2)=NC1O (stereo unspecified) [Oxazepam] | 104 | 98.7 | 99.5 | 98.7 | 91.9 | 93.9 | 18.4
NC(=O)N1c2ccccc2CC(=O)c2ccccc21 [Oxcarbazepin] | 87.8 | 78.5 | 84.4 | 84.7 | 82.7 | 83.7 | 16.4
CCOc1cc(Oc2ccc(C(F)(F)F)cc2Cl)ccc1[N+](=O)[O-] [Oxyfluorfen] | 87.1 | 92.7 | 93.8 | 83.9 | 82.2 | 108 | 21
CCCC(Cn1cncn1)c1ccc(Cl)cc1Cl (stereo unspecified) [Penconazol] | 105 | 105 | 98.5 | 97.1 | 100 | 87.3 | 20.9
O=C(Nc1ccccc1)N(Cc1ccc(Cl)cc1)C1CCCC1 [Pencycuron] | 117 | 124 | 84.2 | 110 | – | 80.4 | 21.4
CCOCCN(C(=O)CCl)C(=C(C)C)c1ccccc1 [Pethoxamid] | 87.2 | 92.5 | 95.5 | 85.7 | 86.7 | 99.6 | 20.3
COC=C(C(=O)OC)c1ccccc1COc1cccc(C(F)(F)F)n1 [Picoxystrobin] | 94.2 | 121 | 94.1 | 94.9 | 99.7 | 81.3 | 20.3
CCCCOCCOCCOCc1cc2c(cc1CCC)OCO2 [Piperonyl-butoxide] | 125 | 88.2 | 75.2 | 66.7 | 88.9 | – | 22.7
Cc1nc(N(C)C)nc(OC(=O)N(C)C)c1C [Pirimicarb] | 102 | 98.7 | 99.4 | 94.3 | 93.5 | 94.1 | 14.1
CCCN(CCOc1c(Cl)cc(Cl)cc1Cl)C(=O)n1ccnc1 [Prochloraz] | 103 | 101 | 99.3 | 96.4 | 93.9 | 92.3 | 20.6

Results, then the compound that gave them:

absolute recovery ([1]; wastewater effluent) [%] | absolute recovery ([1]; wastewater influent) [%] | absolute recovery ([2]; nanopure water) [%] | absolute recovery ([2]; surface water) [%] | absolute recovery ([2]; wastewater effluent) [%] | absolute recovery ([2]; wastewater influent) [%] | LC retention time [3] [min] | SMILES
105 | 107 | 78.4 | 82.4 | 85.9 | 87.2 | 13.4 | C=CCOc1ccccc1OCC(O)C[NH2+]C(C)C (stereo unspecified) [Oxprenolol]
90.1 | 136 | 92.8 | 75.1 | 89.1 | – | 16.2 | CC[NH+](CC)CC#CCOC(=O)C(O)(c1ccccc1)C1CCCCC1 (stereo unspecified) [Oxybutynin]
96.7 | 86.3 | 95.9 | 42.8 | 90.2 | 84.9 | 18.6 | O=C([O-])C(F)(F)C(F)(F)C(F)(F)F [PFBA]
101 | – | 76.7 | – | 79.1 | – | 10.3 | CC(=O)Nc1ccc(O)cc1 [Paracetamol (=3-Acetamidophenol)]
97.1 | 104 | 84.2 | 78.3 | 83 | 91.8 | 7.67 | Nc1nc(=O)c2ncn(CCC(CO)CO)c2[nH]1 [Penciclovir]
95 | 96.1 | 97.7 | 88.8 | 91.5 | 138 | 15.5 | CCCC(NC(C)C(=O)N1C(C(=O)[O-])CC2CCCCC21)C(=O)OCC (stereo unspecified) [Perindopril]
106 | 100 | 83.8 | 93.4 | 91.4 | 95.5 | 13.3 | Cc1cc(=O)n(-c2ccccc2)n1C [Phenazon (=Antipyrin)]
105 | 94.2 | 94.5 | 93.4 | 88.3 | 89 | 11.6 | C[N+](C)([O-])CCC(c1ccccc1)c1ccccn1 (stereo unspecified) [Pheniramine-N-oxide]
113 | 87.2 | 87.9 | 93.7 | 91.7 | 86.8 | 11 | C[NH+](C)CCC(c1ccccc1)c1ccccn1 (stereo unspecified) [Pheniramine]
98.4 | 112 | 90.8 | – | – | – | 17 | O=C1NC(=O)C(c2ccccc2)(c2ccccc2)N1 [Phenytoin]
94.9 | 99.4 | 97.2 | 91.8 | 93.9 | 96.2 | 19 | CCC(C)OC(=O)N1CCCCC1CCO (stereo unspecified) [Picaridin (=Icaridin)]
107 | 104 | 93.3 | 98.1 | 104 | 90.7 | 14.3 | CCc1ccc(CCOc2ccc(CC3SC(=O)[N-]C3=O)cc2)nc1 (stereo unspecified) [Pioglitazone]
105 | 91 | 87.7 | 95.3 | 89.4 | 84 | 15.1 | CCCCOc1ccc(OCCC[NH+]2CCOCC2)cc1 [Pramoxine]
99.2 | 103 | 92.4 | 91.2 | 94 | 95.1 | 18.4 | CCC(C)C(=O)OC1CC(O)C=C2C=CC(C)C(CCC(O)CC(O)CC(=O)[O-])C21 (stereo unspecified) [Pravastatin]
88.4 | 89.8 | 98.3 | 86.5 | 87.2 | 98.8 | 19.5 | O=C(C1CCCCC1)N1CC(=O)N2CCc3ccccc3C2C1 (stereo unspecified) [Praziquantel]
104 | 63.1 | 88 | 82.7 | 82.1 | 91.4 | 18 | CC12C=CC(=O)C=C1CCC1C2C(O)CC2(C)C1CCC2(O)C(=O)CO (stereo unspecified) [Prednisolon]
96.6 | 58.2 | 81 | 78.3 | 76.4 | 87.1 | 17.3 | CC12C=CC(=O)C=C1CCC1C2C(=O)CC2(C)C1CCC2(O)C(=O)CO (stereo unspecified) [Prednisone]
109 | 106 | 82.5 | 83 | 81.8 | 87.2 | 11.7 | CCC[NH2+]C(C)C(=O)Nc1ccccc1C (stereo unspecified) [Prilocain]
103 | 98.5 | 94.9 | 92.4 | 88.6 | 92.9 | 14.5 | CCC1(c2ccccc2)C(=O)NCNC1=O [Primidon]
